Results on five compounds are retold here after ChEMBL document CHEMBL2034937, “Novel 3-Oxazolidinedione-6-aryl-pyridinones as Potent, Selective, and Orally Active EP3 Receptor Antagonists” (ACS Med Chem Lett, 2010).

Activity calls are given as the source filed them. The rule behind the calls is not given here.

The nature of data set [1]: Clearance in Sprague-Dawley rat at 1 mg/kg, iv and 2 mg/kg, po. In kind it is ADME, organism-based. Particulars: in vivo.
Data set [2] has as its target T1, Prostaglandin E2 receptor EP3 subtype (Homo sapiens, UniProt P43115).
T1 sequence (P43115 whole entry): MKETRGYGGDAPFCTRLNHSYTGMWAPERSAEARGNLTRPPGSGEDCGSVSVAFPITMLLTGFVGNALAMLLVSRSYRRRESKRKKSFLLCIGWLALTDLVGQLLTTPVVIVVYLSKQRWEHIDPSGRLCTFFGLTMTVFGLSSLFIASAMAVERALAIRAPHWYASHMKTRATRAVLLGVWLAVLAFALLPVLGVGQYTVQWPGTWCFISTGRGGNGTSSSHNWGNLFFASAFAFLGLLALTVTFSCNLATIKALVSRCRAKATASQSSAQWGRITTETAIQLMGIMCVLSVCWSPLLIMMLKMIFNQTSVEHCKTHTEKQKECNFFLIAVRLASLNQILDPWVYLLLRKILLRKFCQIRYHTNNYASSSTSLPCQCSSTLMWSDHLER
The experiment in a line: Antagonist activity at human EP3c receptor expressed in human U2OS cells assessed as inhibition of PGE2-induced calcium mobilization after 24 hrs by FLIPR assay. In kind it is functional, cell-based.

The test system of data set [3] is Rattus norvegicus. The experiment in a line: Dose-normalized AUC in Sprague-Dawley rat at 2 mg/kg, po. In kind it is ADME, organism-based. Set-up: dose 2 mg/kg, route oral. The following applies: in vivo.
The nature of data set [4]: Drug metabolism in human liver S9 fraction assessed as glutathione conjugate level at 10 uM after 30 mins by HPLC in absence of NADPH. The following applies: s9, 0.5 h. In kind it is ADME, subcellular.
The nature of data set [5]: Drug metabolism in rat liver S9 fraction assessed as glutathione conjugate level at 10 uM after 30 mins by HPLC in absence of NADPH. In kind it is ADME, subcellular. The following applies: s9, 0.5 h.
Data set [6] is described as follows: Half life in Sprague-Dawley rat at 1 mg/kg, iv. In kind it is ADME, organism-based. Also on record: dose 1 mg/kg, route intravenous. The following applies: in vivo.
The nature of data set [7]: Drug metabolism in human liver S9 fraction assessed as NADPH-dependent glutathione conjugate level at 10 uM after 30 mins by LC-MS/MS analysis. In kind it is ADME, subcellular. Particulars: s9, 0.5 h.
In data set [8] the target is T2, Prostaglandin E2 receptor EP3 subtype (Rattus norvegicus, UniProt P34980).
T2 sequence (P34980 whole entry): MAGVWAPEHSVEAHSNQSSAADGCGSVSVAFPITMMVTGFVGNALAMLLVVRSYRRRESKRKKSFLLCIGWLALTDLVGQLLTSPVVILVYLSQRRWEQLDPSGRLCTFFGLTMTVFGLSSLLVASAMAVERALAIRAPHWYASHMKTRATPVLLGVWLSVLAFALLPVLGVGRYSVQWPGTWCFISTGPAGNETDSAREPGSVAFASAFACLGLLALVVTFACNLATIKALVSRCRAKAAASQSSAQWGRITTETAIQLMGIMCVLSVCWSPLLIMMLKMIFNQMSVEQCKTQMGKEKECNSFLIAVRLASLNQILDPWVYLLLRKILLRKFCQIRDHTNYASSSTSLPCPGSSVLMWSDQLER
As to the kind of experiment: Antagonist activity at rat EP3 receptor expressed in human U2OS cells co-expressing Gqi5 assessed as inhibition of PGE2-induced response after 24 hrs by FLIPR assay. In kind it is functional, cell-based.

The nature of data set [9]: Drug metabolism in rat liver S9 fraction assessed as NADPH-dependent glutathione conjugate level at 10 uM after 30 mins by LC-MS/MS analysis. The following applies: s9, 0.5 h. In kind it is ADME, subcellular.
Data set [10] in a line: Oral bioavailability in Sprague-Dawley rat at 2 mg/kg. In kind it is ADME, organism-based. Particulars: in vivo.
Data set [11] addresses T3, Prostaglandin E2 receptor EP1 subtype (Homo sapiens, UniProt P34995).
T3 sequence (P34995 whole entry): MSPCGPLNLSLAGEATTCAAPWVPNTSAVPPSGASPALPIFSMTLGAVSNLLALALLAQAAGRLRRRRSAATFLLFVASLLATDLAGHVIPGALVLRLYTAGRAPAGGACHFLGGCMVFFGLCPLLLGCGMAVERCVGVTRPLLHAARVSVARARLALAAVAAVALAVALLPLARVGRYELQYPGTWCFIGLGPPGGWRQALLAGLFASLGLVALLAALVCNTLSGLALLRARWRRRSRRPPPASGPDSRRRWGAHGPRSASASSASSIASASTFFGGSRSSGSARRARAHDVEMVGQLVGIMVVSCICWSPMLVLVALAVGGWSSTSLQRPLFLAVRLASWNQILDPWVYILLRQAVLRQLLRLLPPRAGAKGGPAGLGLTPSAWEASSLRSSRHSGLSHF
The experiment in a line: Antagonist activity at EP1 receptor in human U2OS cells expressing Gqi5 assessed as inhibition of PGE2-induced response after 24 hrs by FLIPR assay. In kind it is functional, cell-based.

Data set [12] deals with Rattus norvegicus. The experiment in a line: Inhibition of PGE2-induced decrease in bladder capacity in conscious spontaneously hypertensive overactive bladder rat model at 30 mg/kg, id. In kind it is functional, organism-based. Set-up: dose 30 mg/kg. Particulars: Urinary bladder.
Data set [13] deals with Rattus norvegicus. The experiment in a line: Inhibition of GR63799-induced decrease in bladder capacity in conscious spontaneously hypertensive overactive bladder rat model at 0.3 mg/kg, id. In kind it is functional, organism-based. Set-up: dose 0.3 mg/kg. The following applies: Urinary bladder.
Data set [14] in a line: Antagonist activity at dog EP3 receptor expressed in human U2OS cells co-expressing Gqi5 assessed as inhibition of PGE2-induced response after 24 hrs by FLIPR assay. In kind it is functional, cell-based, Canis lupus familiaris.
Data set [15] deals with Rattus norvegicus. As to the kind of experiment: Inhibition of GR63799-induced decrease in bladder capacity in conscious spontaneously hypertensive overactive bladder rat model at 3 mg/kg, id. In kind it is functional, organism-based. Also on record: dose 3 mg/kg. The following applies: Urinary bladder.
Data set [16] deals with Rattus norvegicus. The experiment in a line: Inhibition of GR63799-induced decrease in bladder capacity in conscious spontaneously hypertensive overactive bladder rat model at 30 mg/kg, id. Set-up: dose 30 mg/kg. In kind it is functional, organism-based. Particulars: Urinary bladder.
Data set [17] deals with Rattus norvegicus. As to the kind of experiment: Inhibition of saline-induced bladder rhythmic contraction in anesthetized iv dosed Sprague-Dawley rat model. In kind it is functional, organism-based.
In data set [18] the test system is Rattus norvegicus. The experiment in a line: Inhibition of acetic acid-induced decrease in bladder capacity in conscious spontaneously hypertensive overactive bladder rat model at 30 mg/kg, id. In kind it is functional, organism-based. Set-up: dose 30 mg/kg. The following applies: Urinary bladder.

For `CC(C)C1(c2ccc(-c3ccc4c(ccn4C)c3)[nH]c2=O)OC(=O)NC1=O` (centres undefined), in [1], the clearance stood at 4.5 mL/min/kg. For the same compound, the Ki in data set [2] is 6.31 nM; in [8], 7.94 nM. The compound also registered an AUC/dose in the data set on Rattus norvegicus [3] of 3 µg·h/mL/mg/kg. In addition, the Drug metabolism entry in [4], in [5], in data set [7] and in [9] was “Not Active” in each case. The compound also showed a half-life in data set [6] of 4.2 h. In addition, the bioavailability in [10] is 80%.
In data set [1], `O=C1NC(=O)C(c2ccc(-c3ccc4ccccc4c3)[nH]c2=O)O1` (centres undefined) registered a clearance of 31 mL/min/kg. Further, the Ki was 200 nM in data set [2], above 5010 nM in data set [11] and 316 nM in [8]. In addition, the AUC/dose in the data set on Rattus norvegicus [3] was found to be 0.17 µg·h/mL/mg/kg. This compound also had a half-life in data set [6] of 5.1 h. This compound registered a bioavailability in data set [10] of 32%.
For the compound `CC(C)C1(c2ccc(-c3ccc4cccc(F)c4c3)[nH]c2=O)OC(=O)NC1=O` (centres undefined), the clearance in [1] came out at 2.8 mL/min/kg. Also, the inhibition constant (Ki) in data set [2] and in [8] was 3.16 nM each time. The same compound registered an AUC/dose with Rattus norvegicus [3] of 5.6 µg·h/mL/mg/kg. Further, the Drug metabolism result in [4], in [5], in data set [7] and in data set [9] was “Not Active” each time. For the same compound, the half-life in data set [6] was 3.9 h. Further, the bioavailability in [10] amounted to 93%.
Turning to `CC(C)C1(c2ccc(-c3ccc4ccccc4c3)[nH]c2=O)OC(=O)NC1=O` (centres undefined), the inhibition result in the data set with Rattus norvegicus [12], in the data set with Rattus norvegicus [15], in the data set on Rattus norvegicus [16] and with Rattus norvegicus [18] was “Active” throughout. The inhibition entry with Rattus norvegicus [13] was “inactive”. In addition, the pKi in data set [14] came to 7.7. Also, the inhibition entry in the data set on Rattus norvegicus [17] is “Dose-dependent effect”.
In data set [1], `Cc1ccc(-c2ccc(C3(C(C)C)OC(=O)NC3=O)c(=O)[nH]2)cc1C` (centres undefined) yielded a clearance of 6.3 mL/min/kg. The values for the inhibition constant (Ki) in data set [2] and in data set [8] were 20 nM and 12.6 nM, respectively. The compound also yielded an AUC/dose with Rattus norvegicus [3] of 1.8 µg·h/mL/mg/kg. Also, the Drug metabolism result in data set [4], in data set [5], in [7] and in data set [9] was “Not Active” each time. The compound also showed a half-life in data set [6] of 2.8 h. Further, the bioavailability in data set [10] turned out to be 68%.
